According to patent US9061076B2, “Viral nanoparticle cell-targeted delivery platform” (North Carolina State University, priority 2007, dated 2015):

What was measured:
HeLa cells [1] = test: MTT cell viability assay; format: cell-based; conditions: 7 uM DOX, 24 hours
Description: The effect of DOX-PVN-CD46 on cell viability was measured using an MTT assay (FIG. 10A). HeLa cells were exposed to a free DOX, DOX-PVN, and DOX-PVN-CD46 for 24 hours at DOX concentrations ranging from 0.01 uM to 12 uM prior assaying. […] On the other hand, the percentage of viable cell was approximately 70-80% when the same concentration of free DOX (7 uM) was delivered to the cells. […] The PVN has two desirable properties as a drug delivery platform. First, it sequesters drugs effectively in blood and other biofluids. Second, it delivers drugs inside cells triggered by divalent ion concentration and with a timed release that increases the efficacy of drugs that rely on interactions with DNA. FACS was used to determine the dose-response of DOX-PVN-CD46-F after a 2-hour exposure (FIG. 10B). Cell detachment is an early sign of apoptosis. One method to determining cell survival is to count the number of adherent cells. At a PVN concentration of 1 pM, the number of adherent cells is reduced by approximately 25% (FIG. 10B). The FACS experiments in the lower panel of FIG. 10B counts only the adherent cells. Thus, the reduction in viable (adherent) cells accounts for the low levels of PVN internalization measured by fluorescence intensity. The number of adherent cells decreases to 50% at a DOX-PVN-CD46-F concentration of 100 μM (data not shown).

HeLa cells [2] = test: PVN internalization by FACS / fluorescent microscopy; format: cell-based
Description: Flow cytometry measurements were carried out with the Becton Dickinson FACSCalibur® running Cellquest Pro. Flow cytometry is sometimes referred to as “FACS” herein. The positive population of cells is determined by gating the right-hand tail of the distribution of the negative control sample for each individual cell line at 1%. This setting can then used to determine the percentage of positive cells for each of the above markers for each individual cell line.
We have observed that PVNs with targeting peptides attached to the surface can be internalized into mammalian cells. […] Surface coverage can be determined in a fluorometer using a fluorescein standard curve to quantify the number of fluorophores in the sample and the UV-vis spectrum to quantify the concentration of RCNMV. Based on the measured fluorescence, we determined that the surface of the PVN was labeled with approximately 60 CD46-F peptides. The endocytosis of these formulations was detected using fluorescent microscopy and FACS. FACS quantifies PVN cellular uptake and cargo release in a two-channel fluorescence measurement on populations of hundreds of thousands of cells. […]

| Molecule | percentage of viable cells (HeLa cells [1]) | internalization in HeLa versus HepG2 cell lines (HeLa cells [2]) |
| --- | --- | --- |
| COc1cccc2c1C(=O)c1c(O)c3c(c(O)c1C2=O)C[C@@](O)(C(=O)CO)C[C@@H]3O[C@H]1C[C@H](N)[C@H](O)[C@H](C)O1 [DOX, doxorubicin] | 70-80% |  |
| PVN-CAR-F: native RCNMV conjugated via SMCC with fluorescein-labeled CAR targeting peptide (conjugate) LSITTPEEMIEKAKGETAYLPCKFTLSPEDQGPLDIEWLISPADNQKVDQVIILYSGDKIYDDYYPDLKGRVHFTSNDLKSGDASINVTNLQLSDIGTYQCKVKKAPGVANKKIHLVVLVKPSGARCYVDGSEEIGSDFKIKCEPKEGSLPLQYEWQKLSDSQKMPTSWLAEMTSSVISVKNASSEYSGTYSCTVRNRVGSDQCLLRLNVVPPSNKAGLIAGAIIGTLLALALIGLIIFCCRKKRREEKYEKEVHHDIREDVPPPKSRTSTARSYIGSNHSSLGSMSPSNMEGYSKTQYNQVPSEDFERTPQSPTLPPAKVAAPNLSRMGAIPVMIPAQSKDGSIV |  | nearly the same level of internalization |
